From the supplement of paper PMC7214452
Where a name gives a salt, the structure may show the parent alone.

Columns and labels:
Assay in all cases: normalized area under the dose-response curve (viability relative to DMSO control) (fraction); higher = less sensitive (more viable cells)
Conditions in all cases: exposure time not given
AMO1 (cancer type: MM) = test system: AMO1 (cancer type: MM)
Description: (§1)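 25 myeloma and 15 non-Hodgkin lymphoma cell lines were exposed to each of 76 drugs as 7-point log dilutions (0.01 nM–10 µM) in duplicate. Viability was read with CellTiter-Glo and normalised to DMSO (0.1%) and staurosporine (10 µM) plate controls. Normalised AUC was calculated by the trapezoidal method relative to the negative control.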

EJM (cancer type: MM) = test system: EJM (cancer type: MM)
Description: as §1

FR4 (cancer type: MM) = test system: FR4 (cancer type: MM)
Description: as §1

[1] = test system: Granta-519 (cancer type: Mantle)
Description: as §1

[2] = test system: HuT 78 (cancer type: TCL)
Description: as §1

JJN3 (cancer type: MM) = test system: JJN3 (cancer type: MM)
Description: as §1

[3] = test system: JVM2 (cancer type: Mantle)
Description: as §1

[4] = test system: JeKo-1 (cancer type: Mantle)
Description: as §1

KMS11 (cancer type: MM) = test system: KMS11 (cancer type: MM)
Description: as §1

[5] = test system: KMS12PE (cancer type: MM)
Description: as §1

KMS18 (cancer type: MM) = test system: KMS18 (cancer type: MM)
Description: as §1

KMS26 (cancer type: MM) = test system: KMS26 (cancer type: MM)
Description: as §1

[6] = test system: KMS28BM (cancer type: MM)
Description: as §1

[7] = test system: KMS28PE (cancer type: MM)
Description: as §1

KMS34 (cancer type: MM) = test system: KMS34 (cancer type: MM)
Description: as §1

[8] = test system: Karpas-299 (cancer type: TCL)
Description: as §1

L363 (cancer type: MM) = test system: L363 (cancer type: MM)
Description: as §1

LP1 (cancer type: MM) = test system: LP1 (cancer type: MM)
Description: as §1

MM1.R (cancer type: MM) = test system: MM1.R (cancer type: MM)
Description: as §1

MM1.S (cancer type: MM) = test system: MM1.S (cancer type: MM)
Description: as §1

[9] = test system: Mino (cancer type: Mantle)
Description: as §1

My-La (cancer type: TCL) = test system: My-La (cancer type: TCL)
Description: as §1

[10] = test system: NCI-H929 (cancer type: MM)
Description: as §1

[11] = test system: OCI-LY1 (cancer type: DLBCL)
Description: as §1

[12] = test system: OCI-LY19 (cancer type: DLBCL)
Description: as §1

[13] = test system: OCI-LY3 (cancer type: DLBCL)
Description: as §1

[14] = test system: OCI-MY5 (cancer type: MM)
Description: as §1

[15] = test system: OCI-MY5/CRBN (cancer type: MM)
Description: as §1

[16] = test system: OCI-MY5/Vec (cancer type: MM)
Description: as §1

[17] = test system: OCI-MY7 (cancer type: MM)
Description: as §1

OPM2 (cancer type: MM) = test system: OPM2 (cancer type: MM)
Description: as §1

[18] = test system: RPMI 8226 (cancer type: MM)
Description: as §1

SKMM2 (cancer type: MM) = test system: SKMM2 (cancer type: MM)
Description: as §1

[19] = test system: SR-786 (cancer type: TCL)
Description: as §1

[20] = test system: SU-DHL1 (cancer type: TCL)
Description: as §1

[21] = test system: SU-DHL2 (cancer type: DLBCL)
Description: as §1

[22] = test system: SU-DHL6 (cancer type: DLBCL)
Description: as §1

Se-Ax (cancer type: TCL) = test system: Se-Ax (cancer type: TCL)
Description: as §1

U266 (cancer type: MM) = test system: U266 (cancer type: MM)
Description: as §1

XG2 (cancer type: MM) = test system: XG2 (cancer type: MM)
Description: as §1

Compound | normalized area under the dose-response curve (AMO1 (cancer type: MM)) | normalized area under the dose-response curve (EJM (cancer type: MM)) | normalized area under the dose-response curve (FR4 (cancer type: MM)) | normalized area under the dose-response curve [1] | normalized area under the dose-response curve [2] | normalized area under the dose-response curve (JJN3 (cancer type: MM)) | normalized area under the dose-response curve [3] | normalized area under the dose-response curve [4] | normalized area under the dose-response curve (KMS11 (cancer type: MM)) | normalized area under the dose-response curve [5] | normalized area under the dose-response curve (KMS18 (cancer type: MM)) | normalized area under the dose-response curve (KMS26 (cancer type: MM)) | normalized area under the dose-response curve [6] | normalized area under the dose-response curve [7] | normalized area under the dose-response curve (KMS34 (cancer type: MM)) | normalized area under the dose-response curve [8] | normalized area under the dose-response curve (L363 (cancer type: MM)) | normalized area under the dose-response curve (LP1 (cancer type: MM)) | normalized area under the dose-response curve (MM1.R (cancer type: MM)) | normalized area under the dose-response curve (MM1.S (cancer type: MM)) | normalized area under the dose-response curve [9] | normalized area under the dose-response curve (My-La (cancer type: TCL)) | normalized area under the dose-response curve [10] | normalized area under the dose-response curve [11] | normalized area under the dose-response curve [12] | normalized area under the dose-response curve [13] | normalized area under the dose-response curve [14] | normalized area under the dose-response curve [15] | normalized area under the dose-response curve [16] | normalized area under the dose-response curve [17] | normalized area under the dose-response curve (OPM2 (cancer type: MM)) | normalized area under the dose-response curve [18] | normalized area under the dose-response curve (SKMM2 (cancer type: MM)) | normalized area under the dose-response curve [19] | normalized area under the dose-response curve [20] | normalized area under the dose-response curve [21] | normalized area under the dose-response curve [22] | normalized area under the dose-response curve (Se-Ax (cancer type: TCL)) | normalized area under the dose-response curve (U266 (cancer type: MM)) | normalized area under the dose-response curve (XG2 (cancer type: MM))
CC(C)(C)c1nc(-c2cccc(NS(=O)(=O)c3c(F)cccc3F)c2F)c(-c2ccnc(N)n2)s1 [Dabrafenib mesylate] | 0.643 | 0.775 | 0.939 | 0.898 | 0.812 | 0.804 | 0.587 | 0.858 | 0.831 | 0.75 | 0.735 | 0.972 | 0.979 | 0.85 | 0.84 | 0.752 | 0.787 | 0.836 | 0.84 | 0.9 | 0.775 | 0.908 | 0.78 | 0.984 | 0.861 | 0.89 | 0.733 | 0.906 | 0.858 | 0.81 | 0.829 | 0.851 | 0.827 | 0.851 | 0.833 | 0.889 | 0.882 | 0.775 | 0.754 | 0.932
Cc1nc(Nc2ncc(C(=O)Nc3c(C)cccc3Cl)s2)cc(N2CCN(CCO)CC2)n1 [Dasatinib] | 0.72 | 0.702 | 0.816 | 0.783 | 0.768 | 0.581 | 0.611 | 0.778 | 0.686 | 0.48 | 0.765 | 0.868 | 0.994 | 0.731 | 0.612 | 0.875 | 0.813 | 0.712 | 0.76 | 0.75 | 0.745 | 0.841 | 0.74 | 0.66 | 0.718 | 0.727 | 0.701 | 0.824 | 0.79 | 0.82 | 0.802 | 0.739 | 0.906 | 0.843 | 0.862 | 0.894 | 0.754 | 0.82 | 0.616 | 0.746
Nc1ncn([C@H]2C[C@H](O)[C@@H](CO)O2)c(=O)n1 [Decitabine] | 0.836 | 0.916 | 0.937 | 0.978 | 0.958 | 0.912 | 0.879 | 0.644 | 0.871 | 0.9 | 0.97 | 0.897 | 0.955 | 0.778 | 0.702 | 0.912 | 0.82 | 0.88 | 0.85 | 0.89 | 0.818 | 0.957 | 0.89 | 0.912 | 0.84 | 0.883 | 0.773 | 0.888 | 0.93 | 0.91 | 0.835 | 0.914 | 0.933 | 0.854 | 0.962 | 0.94 | 0.844 | 0.832 | 0.804 | 0.896
C[C@@H]1C[C@H]2[C@@H]3CCC4=CC(=O)C=C[C@]4(C)[C@@]3(F)[C@@H](O)C[C@]2(C)[C@@]1(O)C(=O)CO [Dexamethasone] | 0.762 | 0.777 | 0.933 | 0.925 | 0.873 | 0.983 | 0.799 | 0.875 | 0.805 | 0.96 | 0.788 | 0.773 | 0.904 | 0.735 | 0.487 | 0.852 | 0.756 | 0.613 | 0.94 | 0.66 | 0.86 | 0.883 | 0.79 | 0.924 | 0.947 | 0.963 | 0.725 | 0.928 | 0.814 | 0.76 | 0.826 | 0.777 | 0.648 | 0.972 | 0.907 | 0.686 | 0.8 | 0.759 | 0.818 | 0.863
